PMC5438973 (Frontiers in Psychiatry, 2017)
Like-named read-outs stand apart in the source and are kept apart here.

Columns and labels:
Male, Wistar rats [1] = assay: Schedule-induced polydipsia; format: in vivo, rat; settings: for Effect on excessive drinking / amount of water consumed / Effect on number of responses emitted (lever pressing for food): acute dosing; for Effect of antagonist on the decrease in excessive water consumption produced by CPD 1: CPD 1 5.6 mg/kg
From the text: Rats were used in these experiments as they have been utilized for such studies in the past with great success in generating significant polydipsia ([16]). Male, Wistar rats were singly housed, and maintained at approximately 85% of their free-feeding weights with free access to water. Twelve adult male, Wistar rats (Harlan Industries, Indianapolis, IN, USA) were used. They were allowed to acclimate to our vivarium for at least 3 days prior to testing. They were 2 months old at the start of the experiments that lasted approximately 6–8 months and were without explicit experimental experience prior to this study. The rats were singly housed, and maintained at approximately 86–91% of their free-feeding weights with post session supplemental feeding of Lab Diet #5001 for rodents (PMI Nutrition International Inc., St. Louis, MO, USA). Body weights were corrected for the normal growth curve of Wistar rats such that actual body weight of each rat increased over the experimental time frame. Water was available continuously in the individual home cages. Rats were inspected daily 7 days/week by experimenters and veterinary staff.
The experiments were conducted using operant behavior test chambers ENV-007 (Med Associates Inc., Georgia, VT, USA), 30.5 cm × 24.1 cm × 29.2 cm. The test chambers were contained within light and sound attenuating shells. A food trough was mounted 2 cm off the grid floor on the centerline. Two response levers were centered 8 cm off the centerline and 7 cm off the grid floor. Three lights were located above each response lever at 15 cm off the grid floor. All events were controlled and lever-press data were recorded by a Compaq computer running MED-PC Version IV (Med Associates Inc., Georgia, VT, USA). The water bottle located within each chamber was weighed before and after experimental sessions.
Experimental sessions lasted 90 min. Test compounds or drug vehicle were administered on Tuesdays and Fridays, given the stability of performance (within 15% variation of the individual animal). Non-injection, control performances were on Thursdays. […] Dose-effect curves and drug interaction data were created by repeated testing in groups of five to eight rats. Test compounds were administered as described in figure legends. The effects of the compound are expressed as a percent of control for each individual animal. Results were analyzed by ANOVA followed by Dunnett’s multiple comparison (p < 0.05).
Thus, in keeping with the guidelines of animal care and use followed here, we utilized the minimum number of animals required for signal detection.

Male, NIH Swiss mice [2] = assay: Rotarod performance; format: in vivo, mouse
From the text: Mice were not pretrained on this task.

Male, NIH Swiss mice [3] = assay: Nestlet-shredding; settings: 8/dose group
Male, NIH Swiss mice [4] = settings: 12/dose group
Male, NIH Swiss mice [5] = settings: mouse, in vivo, 60 min
Male, Wistar rats [6] = assay: Isoproterenol-induced drinking; format: in vivo, rat; settings: (±)-isoproterenol 30 μg/kg, s.c.
Experimental: Male, Wistar rats (different from those rats used in the schedule-induced polydipsia studies) were used. They were 331 ± 11 g at the initiation of this study. Compound 1 (5.6 mg/kg, s.c.) was evaluated for its ability to reduce drinking. (±)-isoproterenol (30 μg/kg, s.c.) was given to induce drinking (n = 5–20 rat/group). Ten minutes after vehicle or (±)-isoproterenol injection, rats were given either vehicle or Compound 1 and a 60 min session began in which the rats in individual housing cages were given access to water 20 min after the second injection. The weight of the water bottle before and after the 60 min period was measured to the nearest 0.1 g. After the experiment, the animals were returned to their living cages with continuous access to food and water.

Male, NIH Swiss mice [7] = assay: Locomotor activity; settings: 12/dose group
h5-HT2A = biological target: T1, h5-HT2A (Homo sapiens, UniProt P28223); assay: GTP-γ-[35S] functional assay (SPA), AV12 cells; format: biochemical; settings: GTPgs functional assay, human recombinant cell line
T1 construct: expressed in transfected cells; host or cells: AV12 cells
T1 sequence (P28223 whole entry): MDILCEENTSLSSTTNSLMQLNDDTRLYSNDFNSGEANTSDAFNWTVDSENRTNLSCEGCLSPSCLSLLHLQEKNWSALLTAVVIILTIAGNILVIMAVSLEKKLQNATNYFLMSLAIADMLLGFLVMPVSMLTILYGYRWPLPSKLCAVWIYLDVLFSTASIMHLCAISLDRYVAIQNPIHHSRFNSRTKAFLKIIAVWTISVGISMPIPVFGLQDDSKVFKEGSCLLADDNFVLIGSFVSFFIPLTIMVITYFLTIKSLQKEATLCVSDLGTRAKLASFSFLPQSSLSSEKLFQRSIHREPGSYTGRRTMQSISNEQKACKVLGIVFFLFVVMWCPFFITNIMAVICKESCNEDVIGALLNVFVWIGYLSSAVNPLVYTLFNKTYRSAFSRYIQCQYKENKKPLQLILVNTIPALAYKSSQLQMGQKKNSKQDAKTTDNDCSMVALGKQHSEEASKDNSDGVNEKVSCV
From the text: (§1) 5-HT2 receptors are functionally coupled to specific G-proteins. Agonist activation of 5-HT2 G-protein coupled receptors results in the release of GDP from alpha-subunit (G alpha q or G alpha i) of the G-protein and the subsequent binding of GTP. The binding of the stable analog GTP-g-[^35S] is an indicator of receptor activation. Human cloned 5-HT2A, −2B, and −2C receptors were expressed in AV12 cells. GTP-g-[^35S] nucleotide exchange scintillation proximity assay (SPA) was used to measure binding as previously described ([14]).

h5-HT2B = biological target: T2, h5-HT2B (Homo sapiens, UniProt P41595); assay: GTP-γ-[35S] functional assay (SPA), AV12 cells; format: biochemical; settings: GTPgs functional assay, human recombinant cell line
T2 construct: expressed in transfected cells; host or cells: AV12 cells
T2 sequence (P41595 whole entry): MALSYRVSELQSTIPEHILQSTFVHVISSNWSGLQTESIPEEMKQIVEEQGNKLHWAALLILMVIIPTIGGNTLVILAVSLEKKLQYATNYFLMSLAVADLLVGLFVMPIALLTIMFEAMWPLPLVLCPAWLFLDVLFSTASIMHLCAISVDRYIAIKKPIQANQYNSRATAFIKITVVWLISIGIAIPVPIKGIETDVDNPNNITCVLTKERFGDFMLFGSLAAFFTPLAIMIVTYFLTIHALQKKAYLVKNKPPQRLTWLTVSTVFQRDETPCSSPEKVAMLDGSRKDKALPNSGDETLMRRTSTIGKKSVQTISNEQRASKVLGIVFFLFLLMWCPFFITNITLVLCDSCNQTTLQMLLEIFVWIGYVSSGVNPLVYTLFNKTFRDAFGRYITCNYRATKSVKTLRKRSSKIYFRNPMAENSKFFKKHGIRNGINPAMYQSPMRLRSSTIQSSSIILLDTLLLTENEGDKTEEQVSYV
From the text: as §1

h5-HT2C = biological target: T3, h5-HT2C (Homo sapiens, UniProt P28335); assay: GTP-γ-[35S] functional assay (SPA), AV12 cells; format: biochemical; settings: GTPgs functional assay, human recombinant cell line
T3 construct: expressed in transfected cells; host or cells: AV12 cells
T3 sequence (P28335 33-458): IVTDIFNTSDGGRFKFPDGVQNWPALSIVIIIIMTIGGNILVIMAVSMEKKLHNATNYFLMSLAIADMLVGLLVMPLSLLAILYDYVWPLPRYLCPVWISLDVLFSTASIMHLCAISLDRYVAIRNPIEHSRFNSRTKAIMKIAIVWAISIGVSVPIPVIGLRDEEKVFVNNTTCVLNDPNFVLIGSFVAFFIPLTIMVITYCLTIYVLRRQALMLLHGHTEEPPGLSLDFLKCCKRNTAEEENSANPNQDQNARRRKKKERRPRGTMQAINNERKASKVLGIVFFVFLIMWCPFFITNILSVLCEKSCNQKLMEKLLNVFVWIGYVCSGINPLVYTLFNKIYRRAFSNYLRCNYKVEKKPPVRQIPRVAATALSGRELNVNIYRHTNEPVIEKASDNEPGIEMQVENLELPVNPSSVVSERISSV
From the text: as §1

[8] = fluoxetine 30 mg/kg with SB-242084 3 mg/kg

CN(C)CCCN1c2ccccc2CCc2ccc(Cl)cc21 [Clomipramine, clomipramine]
Effect on excessive drinking / amount of water consumed (Male, Wistar rats [1]; given alone): decreased | Effect on number of responses emitted (lever pressing for food) (Male, Wistar rats [1]; given alone): decreased

C[C@H](N)Cc1ccccc1 [D-amphetamine]
Effect on excessive drinking / amount of water consumed (Male, Wistar rats [1]; given alone): decreased | Effect on number of responses emitted (lever pressing for food) (Male, Wistar rats [1]; given alone): increased

CNCCC(Oc1ccc(C(F)(F)F)cc1)c1ccccc1 (stereo not shown) [Fluoxetine, fluoxetine]
Responses (Rsp) in percent of controls (Male, Wistar rats [1]; 10 mg/kg given alone): 102.3% of controls | Water consumed (H2O) in percent of controls (Male, Wistar rats [1]; 10 mg/kg given alone): 66.7% of controls | Responses (Rsp) in percent of controls (Male, Wistar rats [1]; 30 mg/kg, i.p., given alone): 6% of controls | Water consumed (H2O) in percent of controls (Male, Wistar rats [1]; 30 mg/kg, i.p., given alone): 8% of controls | Dose at which statistically significant reduction of excessive drinking was detected (Male, Wistar rats [1]; Dunnett p < 0.05): 20 mg/kg | Dose at which statistically significant reduction of food-maintained responding was detected (Male, Wistar rats [1]; Dunnett p < 0.05): 20 mg/kg | Water consumed (H2O) in percent of controls (Male, Wistar rats [1]; fluoxetine 10 mg/kg with SB-242084 3 mg/kg): 99.2% of controls | Responses (Rsp) in percent of controls (Male, Wistar rats [1]; [8]): 92.7% of controls | Water consumed (H2O) in percent of controls (Male, Wistar rats [1]; [8]): 101.4% of controls | Rotarod, minimal effective dose (Male, NIH Swiss mice [2]; male, NIH Swiss, mouse, in vivo, 2 min): >30 milligrams per kilogram | Nestlet-shredding, minimal effective dose (Male, NIH Swiss mice [3]): 10 milligrams per kilogram | Marble-burying, minimal effective dose (Male, NIH Swiss mice [4]): 10 milligrams per kilogram | Locomotor activity, minimal effective dose (Male, NIH Swiss mice [5]): >10 milligrams per kilogram

CC(C)NCC(O)c1ccc(O)c(O)c1 (stereo not shown) [Isoproterenol, isoproterenol, reference compound]
Increase of water consumption relative to vehicle-treated rats (Male, Wistar rats [6]): 432%

COc1cccc([C@H](O)C2CCN(CCc3ccc(F)cc3)CC2)c1OC [MDL100907, (R)-(2,3-dimethoxyphenyl)-[1-[2-(4-fluorophenyl)ethyl]-4-piperidyl]methanol]
Effect of antagonist on the decrease in excessive water consumption produced by CPD 1 (Male, Wistar rats [1]): did not significantly alter

CCCC(C)C1(CC)C(=O)NC(=O)NC1=O (stereo not shown) [Pentobarbital, pentobarbital]
Rotarod, minimal effective dose (Male, NIH Swiss mice [2]; mice, 12/dose group): 5.6 milligrams per kilogram | Nestlet-shredding, minimal effective dose (Male, NIH Swiss mice [3]): 10 milligrams per kilogram | Marble-burying, minimal effective dose (Male, NIH Swiss mice [4]): >17 milligrams per kilogram

C[C@H](N)Cn1ccc2cc(F)c(Cl)cc21 [Ro 60-0175]
Effect on excessive drinking / amount of water consumed (Male, Wistar rats [1]; given alone): significantly decreased | Effect on number of responses emitted (lever pressing for food) (Male, Wistar rats [1]; given alone): significantly decreased | Rotarod, minimal effective dose (Male, NIH Swiss mice [2]; mice, 12/dose group): greater than 1 milligrams per kilogram | Rotarod, minimal effective dose (Male, NIH Swiss mice [2]; mice, 12/dose group, listed as RO 60-0175): >10 milligrams per kilogram | Locomotor activity, minimal effective dose (Male, NIH Swiss mice [7]): greater than 10 milligrams per kilogram | Locomotor activity, minimal effective dose (Male, NIH Swiss mice [7]; listed as RO 60-0175): >1 milligrams per kilogram | Nestlet-shredding, minimal effective dose (Male, NIH Swiss mice [3]): less than 1 milligrams per kilogram | Nestlet-shredding, minimal effective dose (Male, NIH Swiss mice [3]; listed as RO 60-0175): <1 milligrams per kilogram | EC50 (h5-HT2A): 130 ± 1 nM | Emax (h5-HT2A): 59 ± 1% | EC50 (h5-HT2B): 57 ± 1 nM | Emax (h5-HT2B): 58 ± 1% | EC50 (h5-HT2C): 5.1 ± 1 nM | Emax (h5-HT2C): 104 ± 1% | Marble-burying, minimal effective dose (Male, NIH Swiss mice [4]): 0.1 milligrams per kilogram

Cc1cc2c(cc1Cl)N(C(=O)Nc1ccc(Oc3cccnc3C)nc1)CC2 [SB242084, 6-chloro-5-methyl-N-{6-[(2-methylpyridin-3-yl)oxy]pyridin-3-yl}indoline-1-carboxamide]
Responses in percent of control (Male, Wistar rats [1]; 3 mg/kg given alone): 191.2% of controls | Water consumed (H2O) in percent of control (Male, Wistar rats [1]; 3 mg/kg given alone): 112.1% of controls | Effect of antagonist on the decrease in excessive water consumption produced by CPD 1 (Male, Wistar rats [1]): prevented | Effect of antagonist on the effects of D-amphetamine (Male, Wistar rats [1]; SB242084 3 mg/kg, D-amphetamine 3 mg/kg): did not alter | Effect of antagonist on the decreases in water consumption and response output produced by fluoxetine (Male, Wistar rats [1]; SB-242084 3 mg/kg, fluoxetine 30 mg/kg): significantly attenuated | Effect on excessive drinking / amount of water consumed (Male, Wistar rats [1]; given alone): did not significantly affect | Effect on number of responses emitted (lever pressing for food) (Male, Wistar rats [1]; given alone): increased

Clc1cccc(N2CCNCC2)c1 [mCPP, meta-chlorophenylpiperazine, reference compound]
Effect on excessive drinking / amount of water consumed (Male, Wistar rats [1]; given alone): significantly decreased | Effect on number of responses emitted (lever pressing for food) (Male, Wistar rats [1]; given alone): significantly decreased | Emax (h5-HT2A): 88 ± 2% | Emax (h5-HT2B): 84 ± 2% | Emax (h5-HT2C): 99 ± 2%
